Several values for one entry are separate records, joined by “and”; a condition that tells them apart may be missing. Equal values may be shown once. Where a name gives a salt, the structure may show the parent alone.
Test: iontophoretic transdermal delivery of Tapentadol hydrochloride, 24 hours of iontophoresis (example 1b), side-bi-side diffusion cells, constant current 0.25 mA (0.4 mA/cm2), donor 100 mM in water
Format: in vitro ADME, pig
Settings: for drug flux across the skin, Mean ± SD / drug flux across the skin, as tapentadol base, Mean ± SD / cumulative, iontophoretic delivery across the skin, Mean ± SD / cumulative, iontophoretic delivery across the skin, as tapentadol base, Mean ± SD: n=6; for drug flux across the skin, Mean ± SD / drug flux across the skin, as tapentadol base, Mean ± SD / cumulative, iontophoretic delivery across the skin, Mean ± SD / cumulative, iontophoretic delivery across the skin, as tapentadol base, Mean ± SD / drug flux across the skin / cumulative, iontophoretic delivery across the skin: patch area 0.64 cm^2; for drug flux across the skin / cumulative, iontophoretic delivery across the skin: single cells 1-6, hydrochloride; for cumulative, iontophoretic delivery across the skin: listed as Tapentadol HCl
Protocol: Determination of the rate of iontophoretic transdermal delivery of Tapentadol hydrochloride for a period of 24 hours of iontophoresis
Tapentadol hydrochloride (batch no. A0012) was employed. The components of the phosphate buffered saline (PBS) and the mobile phase used were from Sigma, UK. The pig skin was obtained from a local farm, washed with water, excess hair was carefully trimmed with scissors, and the skin was dermatomed using a Zimmer dermatome set at a nominal thickness of 750 μm. The skin was then stored at −20° C.
The drug was delivered from the anode, using side-bi-side (horizontal) glass diffusion cells (n=6) supplied by Permegear, USA. The porcine skin membrane was excised from the dorsal surface.
Electrodes were prepared in-house and were made of silver/silver chloride. To pass current for 24 hours in this set-up, it was necessary for the donor compartment to contain 76 mM chloride ions.
The anode was placed in the donor chamber; the donor solution was 3 ml of Tapentadol hydrochloride (100 mM, i.e. 25.78 mg/ml of Tapentadol hydrochloride, 22.13 mg/ml of base) in water. The cathode was placed in the receptor chamber, which contained 3 ml of phosphate-buffered saline, pH 7.4. Both chambers were stirred by magnets.
Current was applied for a total of 8 or 24 hours, respectively.
The receptor solution was sampled and assayed at 0.5, 1, 2, 3, 4, 5, 6, 7, 8 (example 1a) and optionally 24 hours (example 1b) post-initiation of the current. During the 8 hour experiment (example 1a), at 0.5, 1, 2, and 3 hours, 1 ml of receptor solution was removed and replaced with fresh PBS. As it was clear that the amount of Tapentadol in the receptor solution was sufficient for quantitation by HPLC, at the subsequent sampling times of 4, 5, 6, 7 and 8 hours, the entire receptor solution (3 ml) was removed and replaced with fresh PBS, to ensure sink conditions in the receptor. During the 24 hour experiment (example 1b), the entire receptor solution (3 ml) was removed and replaced with fresh PBS at every sampling point.
The concentrations of Tapentadol hydrochloride in the receptor chamber samples were determined by HPLC. A mobile phase consisting of 300:700:1 methanol:water:phosphoric acid was pumped (1 ml/min) through a Acclaim RP-18 (4×150 mm) reverse-phase column (Dionex, UK) at 35° C. Tapentadol concentrations were quantified via their UV absorbance at 215 nm using a calibration curve diluted in PBS at pH 7.4. Injection volume was 20 μl and the retention time for Tapentadol hydrochloride was 12 minutes and the total run time was 16 minutes.
A Tapentadol-free “blank” diffusion cell (donor was saline only) was also prepared and the receptor solution was analysed after 8 hours to confirm no peaks from any component of the skin co-eluted with the Tapentadol hydrochloride.
Voltages were as expected for 6 cells in series (range was 6 to 28 volts). The pH of the donor solution was measured after termination of 24 hours of iontophoresis, and ranged from 6.47 to 6.99. The pH of drug in the donor prior to commencing the experiment was 5.07 (5.34 for the 8 hour iontophoresis).

[1] = 24 hours iontophoresis, as tapentadol hydrochloride

Question: For `CC[C@@H](c1cccc(O)c1)[C@@H](C)CN(C)C` [Tapentadol hydrochloride], which “drug flux across the skin, Mean ± SD” value (0.5 h, iontophoresis) is on record?
Answer: 3 ± 2 µg/h

Question: What about the “drug flux across the skin, as tapentadol base, Mean ± SD” value (0.5 h, iontophoresis) of the same molecule?
Answer: 3 ± 2 µg/h

Question: What about the “cumulative, iontophoretic delivery across the skin, Mean ± SD” value (0.5 h) of the same molecule?
Answer: 2 ± 1 µg

Question: What about the “cumulative, iontophoretic delivery across the skin, as tapentadol base, Mean ± SD” value (from here on “cumulative … as tapentadol base, Mean ± SD”) (0.5 h) of the same molecule?
Answer: 1 ± 1 µg

Question: And the “drug flux across the skin, Mean ± SD” value (1 h, iontophoresis)?
Answer: 48 ± 22 µg/h

Question: What about the “drug flux across the skin, as tapentadol base, Mean ± SD” value (1 h, iontophoresis) of the same molecule?
Answer: 41 ± 19 µg/h

Question: What about the “cumulative, iontophoretic delivery across the skin, Mean ± SD” value (1 h) of the same molecule?
Answer: 26 ± 12 µg

Question: And the “cumulative … as tapentadol base, Mean ± SD” value (1 h)?
Answer: 22 ± 10 µg

Question: And the “drug flux across the skin, Mean ± SD” value (1.5 h, iontophoresis)?
Answer: 96 ± 22 µg/h

Question: And the “drug flux across the skin, as tapentadol base, Mean ± SD” value (1.5 h, iontophoresis)?
Answer: 82 ± 19 µg/h

Question: What about the “cumulative, iontophoretic delivery across the skin, Mean ± SD” value (1.5 h) of the same molecule?
Answer: 74 ± 22 µg

Question: What about the “cumulative … as tapentadol base, Mean ± SD” value (1.5 h) of the same molecule?
Answer: 63 ± 19 µg

Question: What about the “drug flux across the skin, Mean ± SD” value (2 h, iontophoresis) of the same molecule?
Answer: 144 ± 38 µg/h

Question: What about the “drug flux across the skin, as tapentadol base, Mean ± SD” value (2 h, iontophoresis) of the same molecule?
Answer: 124 ± 33 µg/h

Question: What about the “cumulative, iontophoretic delivery across the skin, Mean ± SD” value (2 h) of the same molecule?
Answer: 146 ± 41 µg

Question: What about the “cumulative … as tapentadol base, Mean ± SD” value (2 h) of the same molecule?
Answer: 125 ± 35 µg

Question: What about the “drug flux across the skin, Mean ± SD” value (3 h, iontophoresis) of the same molecule?
Answer: 176 ± 32 µg/h

Question: What about the “drug flux across the skin, as tapentadol base, Mean ± SD” value (3 h, iontophoresis) of the same molecule?
Answer: 151 ± 28 µg/h

Question: What about the “drug flux across the skin” value (3 h, iontophoresis) of the same molecule?
Answer: 128 µg/h and 147 µg/h and 203 µg/h and 208 µg/h and 181 µg/h and 190 µg/h

Question: And the “cumulative, iontophoretic delivery across the skin, Mean ± SD” value (3 h)?
Answer: 322 ± 72 µg

Question: What about the “cumulative … as tapentadol base, Mean ± SD” value (3 h) of the same molecule?
Answer: 276 ± 61 µg

Question: What about the “cumulative, iontophoretic delivery across the skin” value (3 h) of the same molecule?
Answer: 224 µg and 259 µg and 364 µg and 419 µg and 315 µg and 348 µg

Question: What about the “drug flux across the skin, Mean ± SD” value (4 h, iontophoresis) of the same molecule?
Answer: 232 ± 27 µg/h

Question: What about the “drug flux across the skin, as tapentadol base, Mean ± SD” value (4 h, iontophoresis) of the same molecule?
Answer: 199 ± 23 µg/h

Question: And the “drug flux across the skin” value (4 h, iontophoresis)?
Answer: 184 µg/h and 217 µg/h and 238 µg/h and 257 µg/h and 248 µg/h

Question: What about the “cumulative, iontophoretic delivery across the skin, Mean ± SD” value (4 h) of the same molecule?
Answer: 554 ± 96 µg

Question: And the “cumulative … as tapentadol base, Mean ± SD” value (4 h)?
Answer: 475 ± 83 µg

Question: What about the “cumulative, iontophoretic delivery across the skin” value (4 h) of the same molecule?
Answer: 408 µg and 476 µg and 602 µg and 676 µg and 563 µg and 596 µg

Question: What about the “drug flux across the skin, Mean ± SD” value (5 h, iontophoresis) of the same molecule?
Answer: 270 ± 22 µg/h

Question: And the “drug flux across the skin, as tapentadol base, Mean ± SD” value (5 h, iontophoresis)?
Answer: 232 ± 19 µg/h

Question: What about the “drug flux across the skin” value (5 h, iontophoresis) of the same molecule?
Answer: 227 µg/h and 271 µg/h and 283 µg/h and 285 µg/h and 284 µg/h and 272 µg/h

Question: What about the “cumulative, iontophoretic delivery across the skin, Mean ± SD” value (5 h) of the same molecule?
Answer: 824 ± 116 µg

Question: And the “cumulative … as tapentadol base, Mean ± SD” value (5 h)?
Answer: 707 ± 99 µg

Question: What about the “cumulative, iontophoretic delivery across the skin” value (5 h) of the same molecule?
Answer: 635 µg and 747 µg and 885 µg and 962 µg and 847 µg and 867 µg

Question: What about the “drug flux across the skin, Mean ± SD” value (6 h, iontophoresis) of the same molecule?
Answer: 277 ± 18 µg/h

Question: And the “drug flux across the skin, as tapentadol base, Mean ± SD” value (6 h, iontophoresis)?
Answer: 238 ± 16 µg/h

Question: What about the “drug flux across the skin” value (6 h, iontophoresis) of the same molecule?
Answer: 243 µg/h and 282 µg/h and 298 µg/h and 277 µg/h and 286 µg/h and 274 µg/h

Question: And the “cumulative, iontophoretic delivery across the skin, Mean ± SD” value (6 h)?
Answer: 1101 ± 129 µg

Question: What about the “cumulative … as tapentadol base, Mean ± SD” value (6 h) of the same molecule?
Answer: 945 ± 111 µg

Question: And the “cumulative, iontophoretic delivery across the skin” value (6 h)?
Answer: 878 µg and 1029 µg and 1183 µg and 1239 µg and 1133 µg and 1142 µg

Question: And the “drug flux across the skin, Mean ± SD” value (7 h, iontophoresis)?
Answer: 282 ± 18 µg/h

Question: What about the “drug flux across the skin, as tapentadol base, Mean ± SD” value (7 h, iontophoresis) of the same molecule?
Answer: 242 ± 15 µg/h

Question: What about the “drug flux across the skin” value (7 h, iontophoresis) of the same molecule?
Answer: 248 µg/h and 292 µg/h and 282 µg/h and 295 µg/h

Question: And the “cumulative, iontophoretic delivery across the skin, Mean ± SD” value (7 h)?
Answer: 1382 ± 144 µg

Question: And the “cumulative … as tapentadol base, Mean ± SD” value (7 h)?
Answer: 1187 ± 123 µg

Question: What about the “cumulative, iontophoretic delivery across the skin” value (7 h) of the same molecule?
Answer: 1125 µg and 1322 µg and 1465 µg and 1534 µg and 1425 µg and 1424 µg

Question: What about the “drug flux across the skin, Mean ± SD” value (8 h, iontophoresis) of the same molecule?
Answer: 288 ± 30 µg/h

Question: And the “drug flux across the skin, as tapentadol base, Mean ± SD” value (8 h, iontophoresis)?
Answer: 247 ± 26 µg/h

Question: What about the “drug flux across the skin” value (8 h, iontophoresis) of the same molecule?
Answer: 254 µg/h and 331 µg/h and 256 µg/h and 302 µg/h and 282 µg/h

Question: What about the “cumulative, iontophoretic delivery across the skin, Mean ± SD” value (8 h) of the same molecule?
Answer: 1671 ± 155 µg

Question: What about the “cumulative … as tapentadol base, Mean ± SD” value (8 h) of the same molecule?
Answer: 1434 ± 133 µg

Question: And the “cumulative, iontophoretic delivery across the skin” value (8 h)?
Answer: 1380 µg and 1653 µg and 1721 µg and 1836 µg and 1727 µg and 1706 µg

Question: What about the “drug flux across the skin, Mean ± SD” value (24 h, iontophoresis) of the same molecule?
Answer: 309 ± 26 µg/h

Question: And the “drug flux across the skin, as tapentadol base, Mean ± SD” value (24 h, iontophoresis)?
Answer: 265 ± 23 µg/h

Question: And the “drug flux across the skin” value (24 h, iontophoresis)?
Answer: 300 µg/h and 342 µg/h and 330 µg/h and 323 µg/h and 282 µg/h and 277 µg/h

Question: What about the “cumulative, iontophoretic delivery across the skin, Mean ± SD” value (24 h) of the same molecule?
Answer: 6616 ± 468 µg

Question: What about the “cumulative … as tapentadol base, Mean ± SD” value (24 h) of the same molecule?
Answer: 5680 ± 402 µg

Question: What about the “cumulative, iontophoretic delivery across the skin” value (24 h) of the same molecule?
Answer: 6185 µg and 7120 µg and 7001 µg and 7000 µg and 6247 µg and 6145 µg

Question: What about the “cumulative amount delivered across a 0.64 cm2 area of skin, as tapentadol base” value (24 hours iontophoresis) of the same molecule?
Answer: 5.7 mg

Question: What about the “cumulative amount delivered per 1 cm2, as tapentadol base” value (24 hours iontophoresis) of the same molecule?
Answer: 8.9 mg

Question: What about the “cumulative amount delivered across a 0.64 cm2 area of skin” value [1] of the same molecule?
Answer: 6.6 mg

Question: And the “cumulative amount delivered per 1 cm2” value [1]?
Answer: 10.3 mg

Question: What about the “time by which steady-state flux appears to have been reached” value (example 1b, iontophoresis) of the same molecule?
Answer: 5 to 6 h

Question: What about the “difference between flux during iontophoresis and flux due to passive diffusion” value (iontophoresis vs comparative example 1b) of the same molecule?
Answer: 30 fold

Source: patent publication US10632195B2, “Pharmaceutical device for electric-field assisted administration of Tapentadol and method of administering Tapentadol with same” (Gruenenthal GmbH, priority 2012, dated 2020)
